Data from patent publication US5739112A, “Inhibitors of factor Xa” (Corvas International, Inc., priority 1995, dated 1998).
Numbered stars: 1 amine (or outer) side, 2 acyl side, 3 side chain; on linkers, the order of the positions; unused ones are H or OH. Square brackets hold non-standard residues; d marks the D form. Peptide text beside a SMILES is read from it. * marks the point of attachment. 1Nal = N[C@@H](Cc1cccc2ccccc12)C(=O)O; 2Nal = N[C@@H](Cc1ccc2ccccc2c1)C(=O)O; d2Nal = N[C@H](Cc1ccc2ccccc2c1)C(=O)O; dPhg = N[C@@H](C(=O)O)c1ccccc1; Suc = O=C(CCC(=O)[*:2])[*:1]; Boc = CC(C)(C)OC(=O)*

Experiments:
Human factor XIa = target: T1, Human factor XIa (Homo sapiens, UniProt P03951); assay: Factor XIa assay (chromogenic substrate S-2366); assay type: biochemical; conditions: for Percent Selectivity XIa: 100 times IC50 for factor Xa divided by IC50 for factor XIa; for IC50: 60 min preincubation at room temperature, >25 means less than 50% inhibition at 25 μM
T1 construct: purchased Enzyme Research Laboratories, Inc
Method: (§1) To assay their activities, the compounds of the present invention are dissolved in buffer to give solutions containing concentrations ranging under assay concentrations from 0 to about 100 μM. The enzyme to be tested is then added to a solution containing a specified concentration of the test compound. Then after an incubation period, synthetic substrate for the enzyme being tested is added. The rate of substrate turnover is determined spectrophotometrically. The IC50 of the test compound is determined for each test compound in assays for factor Xa, factor XIa, thrombin and tPA. IC50 is that concentration of test compound giving 50% inhibition of the substrate turnover. Percent selectivity is used to indicate selectivity of a compound in inhibiting Factor Xa in comparison with either Factor XIa, thrombin or tPA. Percent selectivity of a particular compound for either Factor XIa, thrombin or tPA refers to a number obtained by dividing the product of one hundred and the IC50 of the compound for Factor Xa by the IC50 of the compound for either Factor XIa, thrombin or tPA.
(§2) The specificity of the peptide aldehydes through was determined by measurement of their IC50 against factor Xa, factor XIa, thrombin and tissue plasminogen activator (tPA). Peptide aldehyde which has been described in the art was run as a comparison. A specific concentration of enzyme and its substrate were challenged with varying concentrations: of inhibitor. IC50 is that concentration of inhibitor giving 50% inhibition of catalytic activity, under the assay conditions Specific assay procedures used are presented below.
Enzyme activity was determined using as substrate, S2366 (L-pyroglutamyl-L-prolyl-L-arginine-p-nitroanilide hydrochloride) which was obtained from Kabi Diagnostica. The substrate was made up in deionized water prior to use.
Human factor XIa was obtained from Enzyme Research Laboratories, Inc. The enzyme was diluted into TBSA prior to use.
(§3) The assay was run by combining in appropriate wells 50 μL of TBSA, 50 μL of inhibitor in TBSA or TBSA (as negative control) and 50 μL of 2 nM human Factor Xia or TBSA (as background control). After incubating this mixture for 60 minutes at room temperature, 50 μL of 6 mM S-2366 was added to each well and the initial rate of the change of the optical density at 405 nm (OD405 nm) for each well was determined. OD405 nm was measured every 10 seconds for 5 minutes.

[1] = target: T2, Human recombinant t-PA (Activase) (Homo sapiens, UniProt P00750); assay: tPA assay (substrate Pefachrome tPA); assay type: biochemical; conditions: for Percent Selectivity tPA: 100 times IC50 for factor Xa divided by IC50 for tPA; for IC50: 60 min preincubation at room temperature, >25 means less than 50% inhibition at 25 μM
T2 construct: purchased Genentech, Inc. Activase
Method: as §1, §2
Enzyme activity was determined using as substrate, Pefachrome tPA (O-methylsulfonate-D-hexahydrotyrosine-L-glycyl-L-argini ne-p-nit roanilide acetate salt) which was obtained from Centerchem, Inc. The substrate was made up in deionized water prior to use.
Human recombinant t-PA (Activase®) was obtained. from Genentech, Inc. The enzyme was reconstituted with water, then diluted into TBSA prior to use.
The assay was run by combining in appropriate wells 50 μL of TBSA, 50 μL of inhibitor in TBSA or TBSA (as negative control) and 50 μL of 4 nM human recombinant tPA or TBSA (as background control). After incubating this mixture for 60 minutes at room temperature, 50 μL of 4 mM Pefachrome tPA was added to each well and the initial rate of the change of optical density at 405 nm (OD405 nm) for each well was determined. OD405 nm was measured every 10 seconds for 5 minutes.

Human factor Xa [2] = target: T3, Human factor Xa (Homo sapiens, UniProt P00742); assay: Factor Xa assay (chromogenic substrate S-2765); assay type: biochemical; conditions: for IC50: 60 min preincubation at room temperature, TBSA pH 7.4; for Percent Selectivity Xa: taken as 100 by definition
T3 construct: Human factor X contains a light-chain subunit containing 139 amino acid residues; purchased Enzyme Research Laboratories
Method: as §1, §2
Enzyme activity was determined using as substrate, S2765 (N-a-benzyloxycarbonyl-D-argininyl-L-glycyl-L-arginine-p-nitroanilide dihydrochloride) which was obtained from Kabi Diagnostica. The substrate was made up in deionized water prior to use.
Human factor Xa was obtained from Enzyme Research Laboratories. The enzyme was diluted into TBSA prior to use.
as §3, with “Factor Xa” for “Factor Xia”, “of 1” for “of 6”, “mM S-2765” for “mM S-2366”

Human α-thrombin = target: T4, Human α-thrombin (Homo sapiens, UniProt P00734); assay: Thrombin assay (chromogenic substrate S-2238); assay type: biochemical; conditions: for Percent Selectivity Thrombin: 100 times IC50 for factor Xa divided by IC50 for thrombin; for IC50: 60 min preincubation at room temperature, >25 means less than 50% inhibition at 25 μM
T4 construct: purchased Enzyme Research Laboratories, Inc
Method: as §1, §2
Enzyme activity was determined using as substrate, S2238 (D-phenylalanyl-L-pipecolyl-L-arginine-p-nitroanilide dihydrochloride) which was obtained from Kabi Diagnostica. The substrate was made up in deionized water prior to use.
Human α-thrombin was obtained from Enzyme Research Laboratories, Inc. The enzyme was diluted into TBSA prior to use.
The assay was run by combining in appropriate wells 50 μL of TBSA, 50 μL of inhibitor in TBSA or TBSA (as negative control) and 50 μL of 4 nM human α-thrombin or TBSA (as background control). After incubating this mixture for 60 minutes at room temperature, 50 μL of 0.24 mM S-2238 was added to each well and the initial rate of the change of optical density at 405 nm (OD405 nm) for each well was determined. OD405 nm was measured every 10 seconds for 5 minutes.

Human factor Xa [3] = target: T3, Human factor Xa; conditions: Hitomi et al., p. 166; read-out: inhibitor constant, human factor Xa; cited from earlier work
human thrombin = human thrombin (Homo sapiens, UniProt P00734); conditions: Hitomi et al., p. 166; read-out: inhibitor constant, human thrombin; cited from earlier work

T1 sequence (P03951 388-625 limits assumed): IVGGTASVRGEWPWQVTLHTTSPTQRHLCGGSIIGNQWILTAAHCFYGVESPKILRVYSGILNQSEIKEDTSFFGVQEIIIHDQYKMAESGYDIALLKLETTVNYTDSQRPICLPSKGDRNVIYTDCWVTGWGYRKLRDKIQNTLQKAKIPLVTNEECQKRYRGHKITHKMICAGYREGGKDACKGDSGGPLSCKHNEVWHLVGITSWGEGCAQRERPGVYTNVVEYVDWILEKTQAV
T1 sequence (P03951 19-387 partner limits assumed): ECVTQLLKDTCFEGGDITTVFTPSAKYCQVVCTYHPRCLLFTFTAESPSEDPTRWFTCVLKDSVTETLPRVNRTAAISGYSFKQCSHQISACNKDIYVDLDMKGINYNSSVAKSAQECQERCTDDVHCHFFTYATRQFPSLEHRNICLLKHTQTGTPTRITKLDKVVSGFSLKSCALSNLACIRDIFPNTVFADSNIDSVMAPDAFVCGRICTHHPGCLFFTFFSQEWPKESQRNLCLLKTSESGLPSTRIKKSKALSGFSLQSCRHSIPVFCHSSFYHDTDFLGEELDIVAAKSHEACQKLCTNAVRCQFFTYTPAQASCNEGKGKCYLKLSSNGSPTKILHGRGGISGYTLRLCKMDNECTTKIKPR
T2 sequence (P00750 36-562): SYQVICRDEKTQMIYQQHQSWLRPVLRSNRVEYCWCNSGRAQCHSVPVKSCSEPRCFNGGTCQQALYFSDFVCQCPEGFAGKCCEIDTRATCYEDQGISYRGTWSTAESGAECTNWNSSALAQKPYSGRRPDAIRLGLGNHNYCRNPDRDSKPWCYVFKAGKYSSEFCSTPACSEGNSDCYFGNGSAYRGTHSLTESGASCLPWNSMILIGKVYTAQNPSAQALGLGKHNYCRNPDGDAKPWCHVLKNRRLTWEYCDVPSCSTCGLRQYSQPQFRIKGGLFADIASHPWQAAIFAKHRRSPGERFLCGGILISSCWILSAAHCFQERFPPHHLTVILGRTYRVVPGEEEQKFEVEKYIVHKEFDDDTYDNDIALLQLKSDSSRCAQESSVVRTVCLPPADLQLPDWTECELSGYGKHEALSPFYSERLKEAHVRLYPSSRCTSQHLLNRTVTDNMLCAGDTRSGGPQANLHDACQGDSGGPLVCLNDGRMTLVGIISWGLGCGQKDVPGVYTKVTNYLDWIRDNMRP
T3 sequence (P00742 235-488 limits assumed): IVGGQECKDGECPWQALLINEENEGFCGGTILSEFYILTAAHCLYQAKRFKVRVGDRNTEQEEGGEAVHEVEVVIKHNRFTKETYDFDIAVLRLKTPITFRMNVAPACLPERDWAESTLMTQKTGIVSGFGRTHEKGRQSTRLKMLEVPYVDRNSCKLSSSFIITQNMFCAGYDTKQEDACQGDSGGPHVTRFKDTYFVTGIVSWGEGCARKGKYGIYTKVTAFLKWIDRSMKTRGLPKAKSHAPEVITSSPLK
T3 sequence (P00742 41-179 partner limits assumed): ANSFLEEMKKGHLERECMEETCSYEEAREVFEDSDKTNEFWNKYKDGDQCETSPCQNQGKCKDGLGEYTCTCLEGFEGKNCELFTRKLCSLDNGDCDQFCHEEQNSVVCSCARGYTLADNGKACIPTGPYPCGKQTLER

Compound | Percent Selectivity XIa (Human factor XIa) | IC50 (Human factor XIa) [µM] | Percent Selectivity tPA [1] | IC50 [1] [µM] | IC50 (Human factor Xa [2]) [µM] | Percent Selectivity Xa (Human factor Xa [2]) | Percent Selectivity Thrombin (Human α-thrombin) | IC50 (Human α-thrombin) [µM] | Ki (Human factor Xa [3]) [µM] | Ki (human thrombin) [µM]
CC(=O)N[C@H](Cc1ccccc1)C(=O)N[C@@H](Cc1cccc2ccccc12)C(=O)N[C@H](C=O)CCCNC(=N)N [[6], N-acetyl-D-phenylalanyl-L-3-(1-naphthyl)alanyl-L-argininal] (Ac-[dF]-[1Nal]-Arg-aldehyde) | 7.8 | 0.32 | < 0.1 | > 25 | 0.025 | 100 | < 0.1 | > 25 |  | 
CC(C)(C)OC(=O)N[C@H](Cc1ccccc1)C(=O)N[C@@H](Cc1cccc2ccccc12)C(=O)N[C@H](C=O)CCCNC(=N)N [[5], N-t-butoxycarbonyl-D-phenylalanyl-L-3-(1-naphthyl)alanyl-L-argininal] (Boc-[dF]-[1Nal]-Arg-aldehyde) | 0.2 | 14 | < 0.1 | > 25 | 0.03 | 100 | 0.2 | 13 |  | 
CC(C)(C)OC(=O)N[C@H](Cc1ccccc1)C(=O)N1CCC[C@H]1C(=O)N[C@H](C=O)CCCNC(=N)N [[23], N-Boc-D-phenylalanyl-L-prolyl-L-argininal, reference compound] | 317 | 1.8 | 518 | 1.1 | 5.7 | 100 | 22,800 | 0.025 |  | 
CC(C)CCC(=O)N[C@H](Cc1ccccc1)C(=O)N[C@@H](Cc1cccc2ccccc12)C(=O)N[C@H](C=O)CCCNC(=N)N [[9]] | < 0.68 | > 25 |  |  | 0.17 | 100 | < 0.68 | > 25 |  | 
CC(C)(C)OC(=O)N[C@@H](C(=O)N[C@@H](Cc1ccccc1)C(=O)N[C@H](C=O)CCCN=C(N)N)c1ccccc1 [[2], N-t-Butoxycarbonyl-D-2-Phenylglycyl-L-phenylalanyl-L-Arainial] (Boc-[dPhg]-Phe-Arg-aldehyde) | 4.9 | 13 | < 2.6 | > 25 | 0.64 | 100 | < 2.6 | > 25 |  | 
N=C(N)c1ccc2cc(OC(=O)c3ccc(N=C(N)N)cc3)ccc2c1 [FUT-75, 6-amidino-2-naphthyl-p-guanidinobenzoate dimethanesulfonate] |  |  |  |  |  |  |  |  | 4.1 | 1.3
CC(C)(C)OC(=O)N[C@H](Cc1ccccc1)C(=O)N1CC[C@H](c2ccccc2)[C@H]1C(=O)N[C@H](C=O)CCCNC(=N)N (relative stereo) [[10], N-t-butoxycarbonyl-D-phenylalanyl-L-(3-trans-phenyl)prolinyl-L-argininal] | < 2.5 | > 25 | < 2.5 | > 25 | 0.625 | 100 | < 2.5 | > 25 |  | 
CC(C)(C)OC(=O)N[C@H](Cc1ccccc1)C(=O)N[C@@H](Cc1ccccc1)C(=O)N[C@H](C=O)CCCNC(=N)N [[4], N-t-butoxycarbonyl-D-phenylalinyl-L-phenylalinyl-L-argininal] (Boc-[dF]-Phe-Arg-aldehyde) | 0.8 | 25 | < 0.8 | > 25 | 0.21 | 100 | < 0.8 | > 25 |  | 
N=C(N)NCCC[C@@H](C=O)NC(=O)[C@H](Cc1cccc2ccccc12)NC(=O)[C@@H](Cc1ccccc1)NC(=O)CCC(=O)O [[8], N-succinyl-D-phenylalanyl-L-3-(1-naphthyl)alanyl-L-argininal] (Suc-[dF]-[1Nal]-Arg-aldehyde) | 0.12 | 20 | < 0.1 | > 25 | 0.023 | 100 | < 0.1 | > 25 |  | 
CC(C)(C)OC(=O)NC(C(=O)N[C@@H](Cc1cccc2ccccc12)C(=O)N[C@H](C=O)CCCNC(=N)N)c1ccc(-c2ccccc2)cc1 (stereo partly drawn) [[7], N-t-butoxycarbonyl-D,L-(α-biphenyl)glycyl-L-3-(1-naphthyl)alanyl-L-argininal] | < 10 | > 25 | < 10 | > 25 | 2.5 | 100 | < 10 | > 25 |  | 
CC(C)(C)OC(=O)N[C@H](Cc1ccccc1)C(=O)N[C@@H](Cc1ccc2ccccc2c1)C(=O)N[C@H](C=O)CCCNC(=N)N [[3], N-t-butoxycarbonyl-D-phenylalanyl-L-3-(2-naphthyl)alanyl-L-argininal] (Boc-[dF]-[2Nal]-Arg-aldehyde) | 3.6 | 25 | < 3.6 | > 25 | 0.89 | 100 | 3.6 | 25 |  | 
CC(C)(C)OC(=O)N[C@H](Cc1ccc2ccccc2c1)C(=O)N[C@@H](Cc1ccccc1)C(=O)N[C@H](C=O)CCCNC(=N)N [[1], N-t-butoxycarbonyl-D-3-(2-naphthyl)alanyl-L-phenylalanyl-L-argininal] (Boc-[d2Nal]-Phe-Arg-aldehyde) | 1.4 | 16 | < 0.9 | > 25 | 0.22 | 100 | 1.6 | 14 |  | 
